Results published in patent US9233977B2, “Leucine-rich repeat kinase enzyme activity” (Merck Sharp & Dohme Corp., priority 2010, dated 2016).

Target: T1, LRRK2 G2019S mutant kinase (Homo sapiens, UniProt Q5S007, G2019S)
T1 construct: GST; purchased Invitrogen PV4882
Assay: LRRK2 G2019S LanthaScreen TR-FRET kinase assay
Type: biochemical
Conditions: LRRK2 G2019S GST-tagged protein, 75 nM Fluorescein-ERM (LRRKtide), 100 μM ATP, 1 hour at room temperature; read-out: IC50 (potency)
Experimental: The final solvent concentration in the assay was 1% DMSO. […] Generation of raw data and workup of data to derive the IC50 (potency) and maximal inhibition at concentrations tested were performed using Merck's Assay Data Analyzer (ADA) software.
The IC50 (potency) was evaluated for the example compounds presented above.

T1 sequence (Q5S007 whole entry G2019S): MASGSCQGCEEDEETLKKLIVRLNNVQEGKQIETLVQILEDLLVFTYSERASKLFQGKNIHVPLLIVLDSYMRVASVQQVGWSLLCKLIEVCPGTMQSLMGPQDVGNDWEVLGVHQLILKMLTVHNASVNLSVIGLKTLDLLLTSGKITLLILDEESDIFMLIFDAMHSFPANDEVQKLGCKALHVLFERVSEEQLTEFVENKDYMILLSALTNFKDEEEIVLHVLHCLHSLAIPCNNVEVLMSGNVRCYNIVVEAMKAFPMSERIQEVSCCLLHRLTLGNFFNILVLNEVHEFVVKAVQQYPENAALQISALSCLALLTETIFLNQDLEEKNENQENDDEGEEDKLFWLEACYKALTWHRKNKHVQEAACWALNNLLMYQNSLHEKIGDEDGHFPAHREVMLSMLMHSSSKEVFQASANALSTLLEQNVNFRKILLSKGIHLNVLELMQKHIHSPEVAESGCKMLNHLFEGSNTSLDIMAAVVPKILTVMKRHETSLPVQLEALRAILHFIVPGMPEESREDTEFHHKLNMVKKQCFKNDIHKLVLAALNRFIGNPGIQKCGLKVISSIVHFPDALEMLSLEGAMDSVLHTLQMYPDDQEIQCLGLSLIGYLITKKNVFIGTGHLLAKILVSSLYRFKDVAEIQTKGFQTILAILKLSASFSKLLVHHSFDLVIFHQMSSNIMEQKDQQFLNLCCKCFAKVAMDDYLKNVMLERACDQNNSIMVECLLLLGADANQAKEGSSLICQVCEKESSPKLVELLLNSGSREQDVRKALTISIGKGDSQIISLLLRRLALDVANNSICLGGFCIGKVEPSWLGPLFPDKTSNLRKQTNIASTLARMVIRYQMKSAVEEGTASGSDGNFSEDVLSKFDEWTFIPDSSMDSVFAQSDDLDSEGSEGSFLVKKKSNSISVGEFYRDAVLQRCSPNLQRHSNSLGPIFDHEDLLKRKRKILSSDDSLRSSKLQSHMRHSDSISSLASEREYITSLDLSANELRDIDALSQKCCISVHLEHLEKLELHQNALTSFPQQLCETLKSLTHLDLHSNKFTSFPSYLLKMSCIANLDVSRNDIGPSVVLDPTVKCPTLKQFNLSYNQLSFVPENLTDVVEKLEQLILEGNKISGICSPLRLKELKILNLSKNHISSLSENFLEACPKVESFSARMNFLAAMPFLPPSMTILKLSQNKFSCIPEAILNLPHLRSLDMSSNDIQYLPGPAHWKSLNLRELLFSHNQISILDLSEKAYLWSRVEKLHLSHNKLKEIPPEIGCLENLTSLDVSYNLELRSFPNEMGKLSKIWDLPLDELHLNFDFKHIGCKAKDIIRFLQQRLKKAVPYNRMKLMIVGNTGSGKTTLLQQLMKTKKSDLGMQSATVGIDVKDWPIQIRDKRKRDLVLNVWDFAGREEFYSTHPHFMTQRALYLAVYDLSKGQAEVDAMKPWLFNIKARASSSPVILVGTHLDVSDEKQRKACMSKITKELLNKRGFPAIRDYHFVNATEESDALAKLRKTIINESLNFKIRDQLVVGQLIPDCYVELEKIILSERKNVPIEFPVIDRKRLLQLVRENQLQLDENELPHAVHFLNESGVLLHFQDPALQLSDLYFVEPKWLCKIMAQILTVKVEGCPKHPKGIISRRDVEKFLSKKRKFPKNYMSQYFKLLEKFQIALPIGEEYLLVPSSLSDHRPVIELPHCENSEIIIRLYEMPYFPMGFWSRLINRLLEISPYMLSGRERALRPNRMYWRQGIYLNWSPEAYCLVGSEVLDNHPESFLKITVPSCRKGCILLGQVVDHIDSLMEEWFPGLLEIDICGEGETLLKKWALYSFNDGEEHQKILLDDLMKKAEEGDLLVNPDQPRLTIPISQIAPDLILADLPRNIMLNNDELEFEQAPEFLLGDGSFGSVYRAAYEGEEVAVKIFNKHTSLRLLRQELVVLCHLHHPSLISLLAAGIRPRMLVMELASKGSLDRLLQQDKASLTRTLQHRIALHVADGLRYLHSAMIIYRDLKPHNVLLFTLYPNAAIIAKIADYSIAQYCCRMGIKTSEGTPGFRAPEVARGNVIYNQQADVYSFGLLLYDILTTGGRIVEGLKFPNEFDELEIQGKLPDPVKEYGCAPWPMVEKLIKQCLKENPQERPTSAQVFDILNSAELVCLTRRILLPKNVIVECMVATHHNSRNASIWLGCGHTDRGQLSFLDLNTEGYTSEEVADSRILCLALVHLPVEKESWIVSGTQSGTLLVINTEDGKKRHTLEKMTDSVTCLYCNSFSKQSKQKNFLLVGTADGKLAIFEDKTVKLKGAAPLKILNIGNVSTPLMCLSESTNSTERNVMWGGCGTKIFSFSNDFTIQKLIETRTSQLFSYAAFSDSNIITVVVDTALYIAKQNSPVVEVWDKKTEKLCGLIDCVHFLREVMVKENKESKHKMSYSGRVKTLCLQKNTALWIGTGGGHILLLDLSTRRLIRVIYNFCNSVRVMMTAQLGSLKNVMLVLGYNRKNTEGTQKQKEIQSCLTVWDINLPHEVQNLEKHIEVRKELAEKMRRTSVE

IC50 [µM]	Compound
0.16	O=C1NC(C(F)(F)F)Cc2c(-c3cc[nH]n3)sc(SC3CCCC3)c21 (centres unmarked) [Example 35, 6-trifluoromethyl-3-(cyclopentylsulfanyl)-1-(1H-pyrazol-3-yl)-6,7-dihydrothieno[3,4-c]pyridin-4(5)-one]
0.052	CC1CNC(=O)c2c(SC3CCCC3)sc(-c3cc[nH]n3)c21 (centres unmarked) [Example 36, 7-methyl-3-(cyclopentylsulfanyl)-1-(1H-pyrazol-3-yl)-6,7-dihydrothieno[3,4-c]pyridin-4(5)-one]
5.2	CCCCNCCSc1sc(-c2cc[nH]n2)c2c1C(=O)NCC2 [Example 37, 3-{[2-(butylamino)ethyl]sulfanyl}-1-(1H-pyrazol-3-yl)-6,7-dihydrothieno[3,4-c]pyridin-4(5)one]
0.64	O=C1NCCc2c(-c3cc[nH]n3)sc(SCCCO)c21 [Example 38]
5.7	CCN(CC)CCSc1sc(-c2cc[nH]n2)c2c1C(=O)NCC2 [Example 39, 3-{[2-{diethylamino)ethyl]sulfanyl}-1-(1H-pyrazol-3-yl)-6,7-dihydrothieno[3,4-c]pyridin-4(5)-one]
4.7	NCCSc1sc(-c2cc[nH]n2)c2c1C(=O)NCC2 [Example 40]
0.46	CC(C)Sc1sc(-c2cc[nH]n2)c2c1C(=O)NCC2 [Example 41, 3-[2-(1-methyl)ethylsulfanyl]-1-(1H-pyrazol-3-yl)-6,7-dihydrothieno[3,4-c]pyridin-4(5)-one]
0.36	CCSc1sc(-c2cc[nH]n2)c2c1C(=O)NCC2 [Example 42, 3-ethylsulfanyl-1-(1H-pyrazol-3-yl)-6,7-dihydrothieno[3,4-c]pyridin-4(5)-one]
0.25	CCCSc1sc(-c2cc[nH]n2)c2c1C(=O)NCC2 [Example 43, 3-propylsulfanyl-1-(1H-pyrazol-3-yl)-6,7-dihydrothieno[3,4-c]pyridin-4(5)-one]
0.13	CCC(C)CSc1sc(-c2cc[nH]n2)c2c1C(=O)NCC2 (centres unmarked) [Example 44, 3-[(2-methyl)butylsulfanyl]-1-(1H-pyrazol-3-yl)-6,7-dihydrothieno[3,4-c]pyridin-4(5)-one]
0.38	O=C1NCCc2c(-c3cc[nH]n3)sc(SC3CCCCC3)c21 [Example 45, 3-(cyclohexylsulfanyl)-1-(1H-pyrazol-3-yl)-6,7-dihydrothieno[3,4-c]pyridin-4(5)-one]
3.1	O=C(O)CSc1sc(-c2cc[nH]n2)c2c1C(=O)NCC2 [Example 46, 1-{[4-oxo-1-(1H-pyrazol-3-yl)-4,5,6,7-tetrahydrothieno[3,4-c]pyridin-3-yl]sulfanyl}acetic acid]
0.58	O=C1NCCc2c(-c3cc[nH]n3)sc(SCCO)c21 [Example 47]
0.055	CCC(C)CSc1sc(-c2cc[nH]n2)c2c1C(=O)N[C@@H](C)C2 (some centres unmarked) [Example 48]
0.12	CCC(C)CSc1sc(-c2cc[nH]n2)c2c1C(=O)N[C@H](C)C2 (some centres unmarked) [Example 49]
3.4	C[C@@H]1Cc2c(-c3cc[nH]n3)sc(SC3(C(=O)O)CCCC3)c2C(=O)N1 [Example 50, 1-{[(6R)-6-methyl-4-oxo-1-(1H-pyrazol-3-yl)-4,5,6,7-tetrahydrothieno[3,4-c]pyridin-3-yl]sulfanyl}cyclopentanecarboxylic acid]
2.2	C[C@H]1Cc2c(-c3cc[nH]n3)sc(SCC(=O)O)c2C(=O)N1 [Example 51, (6S)-6-methyl-1-{[4-oxo-1-(1H-pyrazol-3-yl)-4,5,6,7-tetrahydrothieno[3,4-c]pyridin-3-yl]sulfanyl}acetic acid]
2.7	C[C@@H]1Cc2c(-c3cc[nH]n3)sc(SCC(=O)O)c2C(=O)N1 [Example 52, (6R)-6-methyl-1-{[4-oxo-1-(1H-pyrazol-3-yl)-4,5,6,7-tetrahydrothieno[3,4-c]pyridin-3-yl]sulfanyl}acetic acid]
1.5	O=C1NCCc2c(-c3cc[nH]n3)sc(Sc3ccccc3)c21 [Example 53, 3-phenylsulfanyl-1-(1H-pyrazol-3-yl)-6,7-dihydrothieno[3,4-c]pyridin-4(5)-one]
3.5	CSc1sc(-c2cc[nH]n2)c2c1C(=O)N(C(C)C)CC2 [Example 54, 3-(Methylsulfanyl)-5-(propan-2-yl)-1-(1H-pyrazol-3-yl)-6,7-dihydrothieno[3,4-c]pyridin-4(5H)-one]
1.2	CSc1sc(-c2cc[nH]n2)c2c1C(=O)N(CCc1ccccc1)CC2 [Example 55, 3-(methylsulfanyl)-5-(2-phenethyl)-1-(1H-pyrazol-3-yl)-6,7-dihydrothieno[3,4-c]pyridin-4(5)-one]

IC50 [µM]	Compound
3.7	CSc1sc(-c2cc[nH]n2)c2c1C(=O)N(Cc1ccnc3ccccc13)CC2 [Example 56, 3-(methylsulfanyl)-1-(1H-pyrazol-3-yl)-5-(quinolin-4-ylmethyl)-6,7-dihydrothieno[3,4-c]pyridin-4(5)-one]
3.8	CSc1sc(-c2cc[nH]n2)c2c1C(=O)N(Cc1ccc(Br)cn1)CC2 [Example 57, 5-[(5-bromopyridin-2-yl)methyl]-3-(methylsulfanyl)-1-(1H-pyrazol-3-yl)-6,7-dihydrothieno[3,4-c]pyridin-4(5)-one]
3	CSc1sc(-c2cc[nH]n2)c2c1C(=O)N(Cc1cccnc1Cl)CC2 [Example 58, 5-[(2-chloropyridin-3-yl)methyl]-3-(methylsulfanyl)-1-(1H-pyrazol-3-yl)-6,7-dihydrothieno[3,4-c]pyridin-4(5)-one]
3.7	CSc1sc(-c2cc[nH]n2)c2c1C(=O)N(CCCC#N)CC2 [Example 59, 4-[3-(methylsulfanyl)-4-oxo-1-(1H-pyrazol-3-yl)-6,7-dihydrothieno[3,4-]pyridin-5(4H)-yl]butanenitrile]
1.7	CSc1sc(-c2cc[nH]n2)c2c1C(=O)N(CCCCO)CC2 [Example 60, 5-(4-hydroxybutyl)-3-(methylsulfanyl)-1-(1H-pyrazol-3-yl)-6,7-dihydrothieno[3,4-c]pyridin-4(5)-one]
2.1	CSc1sc(-c2cc[nH]n2)c2c1C(=O)N(Cc1cccnc1)CC2 [Example 61, 5-[(3-pyridinyl)methyl]-3-(methylsulfanyl)-1-(1H-pyrazol-3-yl)-6,7-dihydrothieno[3,4-c]pyridin-4(5)-one]
4.3	CSc1sc(-c2cc[nH]n2)c2c1C(=O)N(CC1CCNC1)CC2 (centres unmarked) [Example 62, 3-(methylsulfanyl)-1-(1H-pyrazol-3-yl)-5-(pyrrolidin-3-ylmethyl)-6,7-dihydrothieno[3,4-c]pyridin-4(5H)-one]
8.4	CSc1sc(-c2cc[nH]n2)c2c1C(=O)N(CC1CCCCO1)CC2 (centres unmarked) [Example 63, 5-[(2-tetrahydropyranyl)methyl]-3-(methylsulfanyl)-1-(1H-pyrazol-3-yl)-6,7-dihydrothieno[3,4-c]pyridin-4(5)-one]
5	CSc1sc(-c2cc[nH]n2)c2c1C(=O)N(CCCCc1ccccc1)CC2 [Example 64, 5-[(4-phenyl)butyl]-3-(methylsulfanyl)-1-(1H-pyrazol-3-yl)-6,7-dihydrothieno[3,4-c]pyridin-4(5)-one]
3.4	CSc1sc(-c2cc[nH]n2)c2c1C(=O)N(CC1CCCNC1)CC2 (centres unmarked) [Example 65, 3-(methylsulfanyl)-1-(1H-pyrazol-3-yl)-5-(piperidin-3-ylmethyl)-6,7-dihydrothieno[3,4-c]pyridin-4(5H)-one]
3.7	CSc1sc(-c2cc[nH]n2)c2c1C(=O)N(CC1CCOCC1)CC2 [Example 66, 5-[(4-tetrahydropyranyl)methyl]-3-(methylsulfanyl)-1-(1H-pyrazol-3-yl)-6,7-dihydrothieno[3,4-c]pyridin-4(5)-one]
9.2	CSc1sc(-c2cc[nH]n2)c2c1C(=O)N(CCN1CCOCC1)CC2 [Example 67, 3-(methylsulfanyl)-5-[2-(morpholin-4-yl)ethyl]-1-(1H-pyrazol-3-yl)-6,7-dihydrothieno[3,4-c]pyridin-4(5)-one]
3.2	CSc1sc(-c2cc[nH]n2)c2c1C(=O)N(CCCCOc1ccccc1)CC2 [Example 68, 3-(methylsulfanyl)-5-(4-phenoxybutyl)-1-(1H-pyrazol-3-yl)-6,7-dihydrothieno[3,4-c]pyridin-4(5)-one]
0.76	CSc1sc(-c2cc[nH]n2)c2c1C(=O)N(CCC=C(F)F)CC2 [Example 69, 5-(4,4-difluorobut-3-en-1-yl)-3-(methylsulfanyl)-1-(1H-pyrazol-3-yl)-6,7-dihydrothieno[3,4-c]pyridin-4(5)-one]
2.5	CSc1sc(-c2cc[nH]n2)c2c1C(=O)N(CCCCC#N)CC2 [Example 70, 5-[3-(methylsulfanyl)-4-oxo-1-(1H-pyrazol-3-yl)-6,7-dihydrothieno[3,4H)-yl]pentanenitrile]
7.5	CSc1sc(-c2cc[nH]n2)c2c1C(=O)N(CCC1CCCCC1)CC2 [Example 71, 3-(methylsulfanyl)-5-[(2-cyclohexyl)ethyl]-1-(1H-pyrazol-3-yl)-6,7-dihydrothieno[3,4-c]pyridin-4(5)-one]
7.9	CSc1sc(-c2cc[nH]n2)c2c1C(=O)N(Cc1ccncc1)CC2 [Example 72, 5-[(4-pyridyl)methyl]-3-(methylsulfanyl)-1-(1H-pyrazol-3-yl)-6,7-dihydrothieno[3,4-c]pyridin-4(5)-one]
5.9	CSc1sc(-c2cc[nH]n2)c2c1C(=O)N(CCC1CCCNC1)CC2 (centres unmarked) [Example 73, 3-(methylsulfanyl)-5-[2-(3-piperidinyl)ethyl]-1-(1H-pyrazol-3-yl)-6,7-dihydrothieno[3,4-c]pyridin-4(5)-one]
7.5	CSc1sc(-c2cc[nH]n2)c2c1C(=O)N(CCCCCc1ccccc1)CC2 [Example 74, 5-[(5-phenyl)pentyl]-3-(methylsulfanyl)-1-(1H-pyrazol-3-yl)-6,7-dihydrothieno[3,4-c]pyridin-4(5)-one]
3.3	CSc1sc(-c2cc[nH]n2)c2c1C(=O)N(C)CC2 [Example 75, 5-methyl-3-(methylsulfanyl)-1-(1H-pyrazol-3-yl)-6,7-dihydrothieno[3,4-c]pyridin-4(5)-one]
